# Results published in patent publication US20050238619A1, “Method for the delivery of sustained release agents” (priority 2004, published 2005).
# Key:
# [1] = Fluorescein retention in RF ablated hepatic tumors in clinical studies, estimated from serial urine samples; type: in vivo, patients; conditions: patient 1, after 12 days; 1 ml of 10% fluorescein (100 mg), 20 injections; estimated 2 L urine/day; FIG. 6
# Experimental: Six patients with unresectable hepatic metastases or hapatocellular carcinoma were enrolled in the Internal Review Board approved protocol following the process of informed consent. Eligibility required that the patient receive RFA for therapeutic intent. RFA was performed using a RadioTherapeutics® device according to their specifications. Subsequently, 1 ml of 10% fluorescein was injected into the ablated tissue (20 different injections).
# Because 98% of fluorescein is excreted in the urine, the amount of released and retained fluorescein could be estimated from serial urine sample. Serially, first morning void urine samples were collected and assessed for fluorescein. The retained fluorescein was calculated by subtracting the estimated excreted fluorescein (measured fluorescein (mg/mL)×estimated 2 L urine/day volume) from the total injected fluorescein (100 mg).
# [2] = Fluorescein retention in RF ablated bovine liver, washed in PBS and photographed under UV light; type: in vitro ADME; conditions: ablated bovine liver bivalved, agitated in 1 L PBS exchanged daily; photographed under UV light; FIG. 1
# Source text: Bovine liver was ablated, injected multiple times with fluorescein. […] The PBS was exchanged daily for two weeks. At weekly intervals, the ablated tissue was photographed under ultraviolet (UV) light. […] This approach can be used to help train and assess people to use the technique.
# [3] = Release of fluorescein from RF ablated bovine liver tissue; type: in vitro ADME; conditions: FIG. 3
# Source text: To determine the rate of fluorescein release, bovine liver was ablated with RF and injected with fluorescein. […] However, after one week of continued washing, the ablated tissue still contained greater than 50% of the original fluorescein.
# [4] = Fluorescein retention by RF ablated bovine liver versus number of injections (fluorimeter); type: in vitro ADME; conditions: total volume 0.5 mL, tissue washed over 10 minutes, FIG. 2
# Experimental: Ablated bovine liver, prepared as in Example 1, was injected 3, 10, or 30 times with fluorescein (total volume of 0.5 mL). The tissue was extensively washed over 10 minutes; and the retained fluorescein was calculated as a percentage of the total injected fluorescein. To quantify the retained fluorescein, the washed tissue was homogenized, centrifuged and the supernatant assessed for fluorescein using a fluorimeter with excitation and emission filters of 485 nm and 525 nm, respectively.
# [5] = Fluorescein retention in RF ablated subcutaneous Ras-6 tumors in vivo; parameters: species or system Balb/c female mice; conditions: Ras-6 flank tumors, RFA, 50 μl fluorescein in 1 to 3 injections; FIG. 4
# Experimental: Balb/c female mice were injected with 10^6 Ras-6 tumor cells in the flank. The Ras-6 tumor was derived by transfection of a p53-null BALB/c murine embryo fibroblast line with a mutant ras gene. Once the tumors reached 0.5-1 cm in size, the animals were placed under general anesthesia; and the tumors was ablated using a 0.7 cm multi-tined probe. RFA was accomplished by starting with 1-3 watts of power and increasing the power every 30 seconds. A special resistor circuit was placed in the circuit to avoid a low resistance default interrupt error built into the RFA generator. Following RFA, the tumors were injected with a total volume of 50 μl of fluorescein using 1 to 3 injections. At various intervals, the animals were sacrificed and the retained fluorescein assessed. FIG. 4 depicts the residual fluorescein after 1, 3, and 8 days. Consistent with the ex vivo studies, the amount of fluorescein decreases over this time interval; however, substantial fluorescein remains in the ablated tumor for ar least 8 days in vivo.
# [6] = general statement used as the basis of the calculation; cited from earlier work
smiles,measurement,setting,value
O=C1OC2(c3ccc(O)cc3Oc3cc(O)ccc32)c2ccccc21 [fluorescein],calculated fluorescein retained in the ablated tumor,[1],greater than 90%
same,time fluorescein was detected within the ablated tissue,[2],at least two weeks
same,course of released fluorescein,"[3]; RF ablated bovine liver, continued washing",exponential decline
same,"fluorescein still contained in the ablated tissue, of the original fluorescein",[3]; after one week of continued washing,greater than 50%
same,retained fluorescein as a percentage of the total injected fluorescein,[4]; 3 injections,41%
same,retained fluorescein as a percentage of the total injected fluorescein,[4]; 10 injections,49%
same,retained fluorescein as a percentage of the total injected fluorescein,[4]; 30 injections,about 65%
same,time substantial fluorescein remains in the ablated tumor in vivo,[5],≥ 8 days
same,fluorescein excreted in the urine,[6],98%
